# Assay results as given in patent publication US12195427B2, “MASP-2 inhibitors and methods of use” (priority 2018, dated 2025).
# Molecular target: MASP-2 CCP2-SP (Homo sapiens (Human), UniProt O00187)
# Assay: MASP-2 co-crystallization, X-ray crystallography and structure analysis (H-bonds, van der Waals contacts);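 on Ligand-pharmacophore element distance, pharmacophore element C2: distance from averaged pharmacophore element to bound ligand; missing value means element absent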;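 on Ligand-pharmacophore element distance, pharmacophore element C3: distance from averaged pharmacophore element to bound ligand; missing value means element absent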;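 on Ligand-pharmacophore element distance, pharmacophore element C4: distance from averaged pharmacophore element to bound ligand; missing value means element absent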;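 on Ligand-pharmacophore element distance, pharmacophore element C5: distance from averaged pharmacophore element to bound ligand; missing value means element absent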
# Design: van der Waals contact distance, MASP-2 HIS 483 atom CD2 / van der Waals contact distance, MASP-2 HIS 483 atom NE2 / van der Waals contact distance, SER 654 C to compound atom / van der Waals contact distance, SER 654 O to compound atom / van der Waals contact distance, TRP 655 C to compound atom / van der Waals contact distance, MASP-2 GLY 528 atom CA / van der Waals contact distance TRP 655 atom CZ3 / van der Waals contact distance TRP 655 atom N / van der Waals contact distance TRP 655 atom CE3 / van der Waals contact distance GLY 656 atom C / van der Waals contact distance GLY 656 atom CA / van der Waals contact distance GLY 656 atom O / van der Waals contact distance, MASP-2 TYR 607 atom CD1 / van der Waals contact distance, MASP-2 PRO 606 atom O / d(C3,CA1) / d(CA1,N1)2 / d(H4,O1) / d(H4,O2) / d(O1,O2) / d(CA1,O2) / d(CA6,O1) / d(CA6,O2) / d(CA1,C5) / d(O2,H3) / d(N2,C2) / d(CA5,N2) / d(N2,C4) / d(N2,C6) / d(N2,CA3) / d(N2,O3) / d(O4,H2): unit not given beside the values
# Conditions: for H-bond distance to MASP-2 GLY 656 atom N: GLY 656 N; for H-bond distance to MASP-2 SER 628 atom O: SER 628 O; for H-bond distance to MASP-2 SER 654 atom O: SER 654 O; for H-bond distance to MASP-2 SER 657 atom O: SER 657 O; for Ligand-pharmacophore element distance, pharmacophore element C2 / Ligand-pharmacophore element distance, pharmacophore element C3 / Ligand-pharmacophore element distance, pharmacophore element C4 / Ligand-pharmacophore element distance, pharmacophore element C5 / Ligand-pharmacophore element distance, pharmacophore element C6 / Ligand-pharmacophore element distance, pharmacophore element C7 / Ligand-pharmacophore element distance, pharmacophore element CA1 / Ligand-pharmacophore element distance, pharmacophore element CA2 / Ligand-pharmacophore element distance, pharmacophore element CA3 / Ligand-pharmacophore element distance, pharmacophore element CA4 / Ligand-pharmacophore element distance, pharmacophore element CA5 / Ligand-pharmacophore element distance, pharmacophore element CA6: Table A4-1; for Pharmacophore protein distance to MET_658 (first MET_658 column) / Pharmacophore protein distance to MET_658 (second MET_658 column) / Pharmacophore protein distance to GLY_528 / Pharmacophore protein distance to PHE_529 / Pharmacophore protein distance to PRO_608 / Pharmacophore protein distance to SER_611 / Pharmacophore protein distance to TRP_655: Table A8-6, nearest protein atom in cell to the left; for Pharmacophore protein distance to MET_658 (first MET_658 column): 6th residue column; for Pharmacophore protein distance to MET_658 (second MET_658 column): 9th residue column; for Pharmacophore protein distance to TRP_655: pharmacophore elements C6, CA3, O3, H1; for a(N1, CA1, O1) b): Methyl-amino-pyridine compounds
# From the text: This example illustrates the preparation of recombinant MASP-2 protein, based on UniProt O00187, human mannan-binding lectin serine protease 2. Expression constructs for human MASP-2 CCP2-SP and CCP2-SP-6HIS were generated for recombinant expression in E. coli cells.
# Typically, crystallization hits were obtained by screening against […] 96-well crystallization reagent kits (GRAS6, GRAS2, Hampton Research; MORPHEUS, Molecular Dimensions; Wizard 1&2 Cryo, Rigaku Reagents) and crystal growth was inspected by optical microscopy. Crystals were used directly or further optimized for X-ray diffraction. Crystals were captured with cryogenic loops and dipped into liquid nitrogen directly or cryoprotected with a 20% glycerol in crystallization formulation before flash-cooling in liquid nitrogen.
# Thereafter crystals are transferred once or twice for soaking within the crystallization solution containing the MASP-2 inhibitor.
# Crystals were diffracted with synchrotron X-rays of […] and X-ray diffraction datasets were collected at beamlines SSRL BL9-2, BL14-1, BL12-2 as well as ALS sector 5 using Dectris Pilatus and Eiger detectors. Structures were determined by molecular replacement using portions of the structure 1Q3X as search models and partially refined with Buster 2.10.2 or Refmac 5.8. […] When multiple ligand poses were observed, for instance arising from multiple molecules in the asymmetric unit or refined dual poses within the same molecule, only one pose was selected and analyzed.
# LigPlot+ calls these ‘nonbonded contacts’ or ‘hydrophobic contacts’. Despite the name, there are atom pairings that include possible H-bonds. Thus, in some instances, the Table A2 also contains H-bond interactions.
# [1] = Table A5-1 pharmacophore: distance between elements, S2/S1 region
# [2] = Table A5-2 pharmacophore distance, S3/S4 region
# [3] = Table A7-1, between pharmacophore elements of the bound compound
# [4] = Table A7-2, between pharmacophore elements of the bound compound
# MASP-2 CCP2-SP, sequence (O00187 445-686): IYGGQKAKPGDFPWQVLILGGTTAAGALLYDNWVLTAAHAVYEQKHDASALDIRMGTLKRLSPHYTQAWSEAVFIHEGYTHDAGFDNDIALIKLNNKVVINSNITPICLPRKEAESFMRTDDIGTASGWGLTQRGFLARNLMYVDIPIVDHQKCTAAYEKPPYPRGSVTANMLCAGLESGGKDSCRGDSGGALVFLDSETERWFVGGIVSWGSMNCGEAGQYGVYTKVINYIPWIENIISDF
# MASP-2 CCP2-SP, sequence (O00187 364-432 partner): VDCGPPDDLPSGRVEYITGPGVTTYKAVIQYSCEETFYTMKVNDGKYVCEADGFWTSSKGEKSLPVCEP
smiles,measurement,setting,value
C[C@H](NC(=O)C1C[C@@H](c2ccccc2)CCN1)C(=O)NCc1ccc(C(=N)N)cc1 (stereo in doubt) [compound 1063],H-bond distance to MASP-2 GLY 656 atom N,Table A1 (H-Bonds),3.25
same,H-bond distance to MASP-2 SER 628 atom O,Table A1 (H-Bonds),2.93
same,H-bond distance to MASP-2 SER 654 atom O,Table A1 (H-Bonds),2.94
same,H-bond distance to MASP-2 SER 657 atom O,Table A1 (H-Bonds),2.83
same,"van der Waals contact distance, MASP-2 PHE 529 atom CD1",Table A2-3,3.71
same,"van der Waals contact distance, MASP-2 amino acid atom to compound atom","Table A2-5: TYR 607 (CE1, CE2, OH), PRO 608 (CD, CG), SER 611 (CA)",3.85
same,van der Waals contact distance GLY 656 atom C,"Table A2-13, MASP-2 GLY 656 C",3.36
same,van der Waals contact distance TRP 655 atom O,"Table A2-13, MASP-2 TRP 655 O",3.84
same,van der Waals contact distance SER 657 atom C,"Table A2-14, MASP-2 SER 657 C, columns c12-c13 (inferred)",3.75
same,"Ligand-pharmacophore element distance, pharmacophore element C2",,0.48
same,"Ligand-pharmacophore element distance, pharmacophore element C3",,0
same,"Ligand-pharmacophore element distance, pharmacophore element C4",,0
same,"Ligand-pharmacophore element distance, pharmacophore element C5",,0
same,"Ligand-pharmacophore element distance, pharmacophore element C6",,0
same,"Ligand-pharmacophore element distance, pharmacophore element C7",,0
same,"Ligand-pharmacophore element distance, pharmacophore element CA1",,0.3
same,"Ligand-pharmacophore element distance, pharmacophore element CA2",,0.85
same,"Ligand-pharmacophore element distance, pharmacophore element CA3",,0
same,"Ligand-pharmacophore element distance, pharmacophore element CA4",,0
same,"Ligand-pharmacophore element distance, pharmacophore element CA5",,0
same,"Ligand-pharmacophore element distance, pharmacophore element CA6",,0
same,"d(CA1,N1)",[1],3.56
same,"d(CA1,O1)",[1],4.95
same,"d(CA1,O2)",[1],3.58
same,"d(H4,O1)",[1],5.37
same,"d(H4,O2)",[1],3.82
same,"d(O1,O2)",[1],3.31
same,"d(N2,C2)",[2],1.38
same,"d(N2,CA2)",[2],5.62
same,"d(O2,H3)",[2],4.92
same,"d(O2,N2)",[2],3.36
same,"a(CA1, O1, O2)",Table A6-1 pharmacophore angle,88.32
same,"a(O1, O2, H4)",Table A6-1 pharmacophore angle,142.43
same,"A(N1, CA1, O1) a)","Table A6-1 pharmacophore angle, all compounds with protonatable center N1 except Methyl-amino-pyridine",167.99
same,"a(O1, O2, H3)",Table A6-2 pharmacophore angle,157.64
same,"a(O1, O2, N2)",Table A6-2 pharmacophore angle,139.49
same,"a(O2, N2, C2)",Table A6-2 pharmacophore angle,118.75
same,"a(O2, N2, CA2)",Table A6-2 pharmacophore angle,154.05
same,"Pharmacophore torsion angle a(H4, O1, O2, H3)",[3],54.13
same,"Pharmacophore torsion angle a(H4, O1, O2, N2)",[3],155.02
same,"Pharmacophore torsion angle a(N1, CA1, O2, H4)",[3],−130.71
same,"Pharmacophore torsion angle a(O1, H4, O2, CA1)",[3],−74.94
same,"Pharmacophore torsion angle a(O1, O2, N2, C2)",[3],150.29
same,Pharmacophore protein distance to MET_658 (first MET_658 column),,1.74
same,Pharmacophore protein distance to MET_658 (second MET_658 column),,2.75
same,Pharmacophore protein distance to GLY_528,,3.37
same,Pharmacophore protein distance to PHE_529,,3.00
same,Pharmacophore protein distance to PRO_608,,4.92
same,Pharmacophore protein distance to SER_611,,3.00
same,Pharmacophore protein distance to TRP_655,,3.73
"Cc1nc(N)ccc1CNC(=O)C(C)NC(=O)[C@H]1C[C@H](c2cccc(-c3ccccc3)c2)CN1 (stereo in doubt) [compound 1360, (2R,4R)-4-([1,1′-Biphenyl]-3-yl)-N—((R)-1-(((6-amino-2-methylpyridin-3-yl)methyl)amino)-1-oxopropan-2-yl)pyrrolidine-2-carboxamide]",H-bond distance to MASP-2 ASP 627 atom OD2,"Table A1 (H-Bonds), ASP 627 OD2",3.15
same,H-bond distance to MASP-2 GLY 656 atom N,Table A1 (H-Bonds),3.21
same,H-bond distance to MASP-2 GLY 656 atom O,"Table A1 (H-Bonds), GLY 656 O",2.9
same,H-bond distance to MASP-2 SER 628 atom O,Table A1 (H-Bonds),3.18
same,H-bond distance to MASP-2 SER 654 atom O,Table A1 (H-Bonds),3.04
same,H-bond distance to MASP-2 SER 657 atom O,Table A1 (H-Bonds),2.96
same,"van der Waals contact distance, MASP-2 HIS 483 atom CD2",Table A2-1,3.76
same,"van der Waals contact distance, MASP-2 HIS 483 atom NE2",Table A2-1,3.69
same,"van der Waals contact distance, MASP-2 PHE 529 atom CE1",Table A2-3,3.78
same,"van der Waals contact distance, MASP-2 amino acid atom to compound atom","Table A2-7: SER 628 (CB, O, OG)",3.61
same,"van der Waals contact distance, TRP 655 CA to compound atom",Table A2-12,3.44
same,"Ligand-pharmacophore element distance, pharmacophore element C2",,0
same,"Ligand-pharmacophore element distance, pharmacophore element C3",,0.11
same,"Ligand-pharmacophore element distance, pharmacophore element C4",,0
same,"Ligand-pharmacophore element distance, pharmacophore element C5",,0
same,"Ligand-pharmacophore element distance, pharmacophore element C6",,0
same,"Ligand-pharmacophore element distance, pharmacophore element C7",,0
same,"Ligand-pharmacophore element distance, pharmacophore element CA1",,0.57
same,"Ligand-pharmacophore element distance, pharmacophore element CA2",,2.35
same,"Ligand-pharmacophore element distance, pharmacophore element CA3",,0
same,"Ligand-pharmacophore element distance, pharmacophore element CA4",,0
same,"Ligand-pharmacophore element distance, pharmacophore element CA5",,1.11
same,"Ligand-pharmacophore element distance, pharmacophore element CA6",,0
same,"d(C3,CA1)",[1],2.85
same,"d(CA1,N1)2",[1],1.36
same,"d(CA1,O1)",[1],4.35
same,"d(CA1,O2)",[1],3.85
same,"d(H4,O1)",[1],4.38
same,"d(H4,O2)",[1],3.80
same,"d(O1,O2)",[1],3.32
same,"d(CA5,N2)",[2],5.07
same,"d(N2,CA2)",[2],8.32
same,"d(O2,H3)",[2],4.32
same,"d(O2,N2)",[2],2.66
same,"a(C3, CA1, O1)",Table A6-1 pharmacophore angle,150.18
same,"a(CA1, O1, O2)",Table A6-1 pharmacophore angle,105.67
same,"a(O1, O2, H4)",Table A6-1 pharmacophore angle,132.69
same,"a(N1, CA1, O1) b)",Table A6-1 pharmacophore angle,174.23
same,"a(O1, O2, H3)",Table A6-2 pharmacophore angle,147.57
same,"a(O1, O2, N2)",Table A6-2 pharmacophore angle,138.89
same,"a(O2, N2, CA2)",Table A6-2 pharmacophore angle,162.09
same,"Pharmacophore torsion angle a(C3, CA1, O1, H4)",[3],24.01
same,"Pharmacophore torsion angle a(H4, O1, O2, H3)",[3],51.00
same,"Pharmacophore torsion angle a(H4, O1, O2, N2)",[3],138.89
same,"Pharmacophore torsion angle a(N1, CA1, O1, H4)",[3],3.34
same,"Pharmacophore torsion angle a(O1, H4, O2, CA1)",[3],−83.81
same,"Pharmacophore torsion angle a(O1, O2, N2, CA2)",[4],130.24
same,"Pharmacophore torsion angle a(O1, O2, N2, CA5)",[4],129.35
C[C@H](NC(=O)[C@H](N)CCc1ccccc1)C(=O)NCc1ccc(N)nc1.Cl.Cl [1007_1],"Ligand-pharmacophore element distance, pharmacophore element C2",,0
same,"Ligand-pharmacophore element distance, pharmacophore element C3",,0
same,"Ligand-pharmacophore element distance, pharmacophore element C4",,0
same,"Ligand-pharmacophore element distance, pharmacophore element C5",,0
same,"Ligand-pharmacophore element distance, pharmacophore element C6",,0
same,"Ligand-pharmacophore element distance, pharmacophore element C7",,0
same,"Ligand-pharmacophore element distance, pharmacophore element CA1",,0.35
same,"Ligand-pharmacophore element distance, pharmacophore element CA2",,0.77
same,"Ligand-pharmacophore element distance, pharmacophore element CA3",,0
same,"Ligand-pharmacophore element distance, pharmacophore element CA4",,0
same,"Ligand-pharmacophore element distance, pharmacophore element CA5",,0
same,"Ligand-pharmacophore element distance, pharmacophore element CA6",,0
same,"d(CA1,N1)2",[1],1.38
same,"d(CA1,O1)",[1],4.39
same,"d(CA1,O2)",[1],3.86
same,"d(H4,O1)",[1],3.59
same,"d(H4,O2)",[1],2.73
same,"d(O1,O2)",[1],3.55
same,"d(N2,CA2)",[2],6.02
same,"d(O2,H3)",[2],4.41
same,"d(O2,N2)",[2],2.79
same,"a(CA1, O1, O2)",Table A6-1 pharmacophore angle,107.37
same,"a(O1, O2, H4)",Table A6-1 pharmacophore angle,113.31
same,"a(N1, CA1, O1) b)",Table A6-1 pharmacophore angle,174.46
same,"a(O1, O2, H3)",Table A6-2 pharmacophore angle,146.43
same,"a(O1, O2, N2)",Table A6-2 pharmacophore angle,138.95
same,"a(O2, N2, CA2)",Table A6-2 pharmacophore angle,154.71
same,"Pharmacophore torsion angle a(H4, O1, O2, H3)",[3],50.93
same,"Pharmacophore torsion angle a(H4, O1, O2, N2)",[3],137.94
same,"Pharmacophore torsion angle a(N1, CA1, O1, H4)",[3],39.07
same,"Pharmacophore torsion angle a(O1, H4, O2, CA1)",[3],−94.99
same,"Pharmacophore torsion angle a(O1, O2, N2, CA2)",[4],128.23
same,Pharmacophore protein distance to MET_658 (first MET_658 column),,2.61
same,Pharmacophore protein distance to MET_658 (second MET_658 column),,3.25
same,Pharmacophore protein distance to GLY_528,,3.76
same,Pharmacophore protein distance to PHE_529,,3.15
same,Pharmacophore protein distance to PRO_608,,3.15
same,Pharmacophore protein distance to SER_611,,2.06
same,Pharmacophore protein distance to TRP_655,,3.70
